In brackets after ≈: the same amount, converted by molar mass. Several values for one entry are separate records, joined by “and”; a condition that tells them apart may be missing. Identical values can stand only once. Where only a bound is given, the exact number is not on record here.

In US9657022B2, “7-OXO-1,6-diazabicyclo[3.2.1]octane derivatives and their use as antibacterial agents” (WOCKHARDT LIMITED, priority 2014, dated 2017) one finds MIC and IC50 data, which are given here for one compound.

The subject of experiment [1] is E. coli NCTC 13353 (CTX-M15, OXA-1). The experiment in a line: Antibacterial activity (MIC), agar dilution per CLSI. Format: cell-based. The following applies: Escherichia coli, NCTC13353; E. coli NCTC 13353 (CTX-M15, OXA-1); read-out: MIC. The procedure:
(§1) The biological activity of representative compounds according to the invention against various bacterial strains was investigated. In a typical study, overnight grown bacterial cultures were diluted appropriately and inoculated on the agar media containing doubling dilutions of the test compounds. Observations for growth or no growth was performed after 16-20 hours of incubation at 35±2° C. in the ambient air. The overall procedure was performed as per Clinical and Laboratory Standards Institute (CLSI) recommendations, (Clinical and Laboratory Standards Institute (CLSI), Performance Standards for Antimicrobial Susceptibility Testing, 20th Informational Supplement, M07-A9, Volume 32, No. 2, 2012). Molten Mueller Hinton Agar (BD, USA) containing serial dilutions of each antibacterial agent were poured on to the plates and allowed to solidify. Appropriate suspensions from the freshly grown cultures were prepared in normal saline so that about 10^4 CFU/spot of the organism was delivered on to the drug containing agar plates using automated multipoint inoculator (Mast, UK). The plates were incubated in Biochemical oxygen demand (BOD) incubator at 37° C. for 18 hours and then examined for growth.
(§2) The strains selected for study included E. coli NCTC 13353 producing CTX-M15 and OXA-1 beta-lactamase enzymes; K. pneumoniae H521 producing KPC, SHV, TEM beta-lactamase enzymes; and K. pneumoniae S48 producing NDM, SHV, TEM beta-lactamase enzymes. The activities are expressed as Minimum Inhibitory Concentrations (MICs) (mcg/ml).
(§3) The activities are expressed as Minimum Inhibitory Concentrations (MICs) (mcg/ml).

In experiment [2] the test system is K. pneumoniae H521 (KPC, SHV, TEM). Described as above. Format: cell-based. The following applies: Klebsiella pneumoniae; K. pneumoniae H521 (KPC, SHV, TEM); read-out: MIC. The method, then: as §1, §2, §3
In a further experiment the test system is C. frundaii 58 MP. The description is as above. In kind it is cell-based. The method, then: as §1
(§4) Table 3 details the antibacterial activity of representative compound of Formula (I), (2S,5R)-sulfuric acid mono-{2-[N′-(2-(S)-pyrrolidin-2-yl-acetyl)-hydrazinocarbonyl]-7-oxo-1,6-diaza-bicyclo[3.2.1]oct-6-yl}ester (Compound of Example 1), against various Multi Drug Resistant (MDR) Gram-negative bacterial strains. The activities are expressed as Minimum Inhibitory Concentrations (MICs) (mcg/ml).

Another experiment concerns E. cloacae M 20. The description is as above. Format: cell-based. The following applies: Enterobacter cloacae, M20. The procedure:
as §1, §4

The subject of a further experiment is E. coli 7 MP. Described as above. In kind it is cell-based. The following applies: Escherichia coli. The method, then: as §1, §4
The subject of another experiment is E. coli M 49. The description is as above. In kind it is cell-based. The following applies: Escherichia coli, M49. The method, then: as §1, §4
For the next experiment, the system named is E. coli M 50. The experiment is described as above. Format: cell-based. The following applies: Escherichia coli, M50. The method, then:
as §1, §4

The subject of the next experiment is E. coli NCTC 13351. Described as above. In kind it is cell-based. As to conditions: Escherichia coli, NCTC13351. The procedure: as §1, §4
For the next experiment, the system named is E. coli NCTC 13352. The experiment is described as above. In kind it is cell-based. The following applies: Escherichia coli, NCTC13352. The procedure: as §1, §4
For a further experiment, the system named is K. pneumoniae H 525. The description is as above. As to conditions: Klebsiella pneumoniae, H525. Format: cell-based. The method, then:
as §1, §4

Another experiment relates to K. pneumoniae S 21. Described as above. In kind it is cell-based. The following applies: Klebsiella pneumoniae, S21. The procedure: as §1, §4
For a further experiment, the system named is P. aeruginosa 2779. Described as above. Format: cell-based. The following applies: Pseudomonas aeruginosa. The procedure:
as §1, §4

The test system of the next experiment is P. aeruginosa ATCC 27853. The experiment is described as above. The following applies: Pseudomonas aeruginosa, ATCC27853. In kind it is cell-based. The method, then:
as §1, §4

Another experiment concerns P. aeruginosa PAO1. The description is as above. Format: cell-based. The following applies: Pseudomonas aeruginosa. The method, then: as §1, §4
For a further experiment, the system named is P. aeruginosa R 20. The description is as above. As to conditions: Pseudomonas aeruginosa, R20. Format: cell-based. The procedure:
as §1, §4

Experiment [3] has as its target T1, Class A beta-lactamase SHV 18 (K. pneumoniae ATCC 700603) (Klebsiella pneumoniae, UniProt P0AD64, E235K/G234A/I4F/R39S).
T1 sequence (P0AD64 1-286 I4F/R39S/G234A/E235K): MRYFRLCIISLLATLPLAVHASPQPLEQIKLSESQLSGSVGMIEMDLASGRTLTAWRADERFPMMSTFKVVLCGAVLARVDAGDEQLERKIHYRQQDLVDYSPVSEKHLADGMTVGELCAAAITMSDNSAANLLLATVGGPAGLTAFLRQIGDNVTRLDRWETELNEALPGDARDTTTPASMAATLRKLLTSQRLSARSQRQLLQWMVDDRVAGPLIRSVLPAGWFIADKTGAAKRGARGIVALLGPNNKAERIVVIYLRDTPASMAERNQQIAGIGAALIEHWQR
The experiment in a line: Beta-lactamase enzyme inhibition (Nitrocefin, crude enzyme). Format: biochemical. As to conditions: Class A, K. pneumoniae ATCC 700603 (SHV 18); read-out: Beta-lactamase enzyme inhibition IC50. The procedure: (§5) Absorbance was measured at 485 nm by UV-spectrophotometer. The IC50 was calculated by plotting absorbance against concentration through Sigmoidal dose response curve using Graph Pad software.
The enzyme inhibition was expressed as IC50.

The target in experiment [4] is T2, Class C beta-lactamase P99 (E. cloacae J137) (Enterobacter cloacae, UniProt P05364).
T2 construct: preincubated mixture of crude enzyme and the compounds; endogenous in cells; host or cells: E. cloacae J137
The experiment is described as above. In kind it is biochemical. The method, then:
as §5

The target of experiment [5] is Class D beta-lactamase OXA 26 (A. baumannii NCTC 13303) (Acinetobacter baumannii, UniProt Q9F0V2). The description is as above. Format: biochemical. The following applies: A. baumannii NCTC 13303 (OXA 26), read-out: Beta-lactamase enzyme inhibition IC50. The procedure: as §5
Sequence of Class D beta-lactamase OXA 26 (A. baumannii NCTC 13303) (Q9F0V2 entry or part of it): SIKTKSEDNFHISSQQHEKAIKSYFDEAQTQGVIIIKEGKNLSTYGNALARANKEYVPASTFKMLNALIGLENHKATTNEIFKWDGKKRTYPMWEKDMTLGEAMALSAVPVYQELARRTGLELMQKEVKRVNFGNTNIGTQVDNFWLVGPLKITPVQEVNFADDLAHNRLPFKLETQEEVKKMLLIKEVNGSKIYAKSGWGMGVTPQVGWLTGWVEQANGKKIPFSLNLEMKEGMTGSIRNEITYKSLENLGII

T2 sequence (P05364 21-381): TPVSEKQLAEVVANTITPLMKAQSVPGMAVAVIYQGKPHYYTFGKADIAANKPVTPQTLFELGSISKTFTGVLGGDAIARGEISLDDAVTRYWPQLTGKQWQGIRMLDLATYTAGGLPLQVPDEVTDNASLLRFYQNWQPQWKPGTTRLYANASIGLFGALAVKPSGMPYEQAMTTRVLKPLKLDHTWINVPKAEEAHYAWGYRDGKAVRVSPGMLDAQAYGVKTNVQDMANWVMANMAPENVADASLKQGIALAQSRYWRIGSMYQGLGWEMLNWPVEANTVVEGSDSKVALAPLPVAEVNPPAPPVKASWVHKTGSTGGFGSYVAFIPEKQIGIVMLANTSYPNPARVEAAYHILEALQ

Turning to `NC(=O)[C@@H]1CC[C@@H]2CN1C(=O)N2OS(=O)(=O)O` [Avibactam, avibactam, reference compound], the MIC was 16 µg/mL (≈ 60.3 µM) in [1]; 16 µg/mL (≈ 60.3 µM) in experiment [2]; greater than 64 µg/mL against C. frundaii 58 MP; greater than 64 µg/mL against E. cloacae M 20; greater than 64 µg/mL against E. coli 7 MP; 16 µg/mL (≈ 60.3 µM) with E. coli M 49. Also, the minimal inhibitory concentration (MIC) with E. coli M 50 is greater than 64 µg/mL; in the experiment on E. coli NCTC 13351, greater than 64 µg/mL; against E. coli NCTC 13352, greater than 64 µg/mL; against K. pneumoniae H 525 it was 8 µg/mL (≈ 30.2 µM); in the experiment with K. pneumoniae S 21, 16 µg/mL (≈ 60.3 µM); against P. aeruginosa 2779, greater than 64 µg/mL. The MIC with P. aeruginosa ATCC 27853, with P. aeruginosa PAO1 and in the experiment on P. aeruginosa R 20 was greater than 64 µg/mL throughout. In addition, the IC50 in experiment [3] was 98 nM and 10 nM; in experiment [4], 79 nM; in experiment [5], 10100 nM.
